Source: PMC8406319, “The dCache Chemoreceptor TlpA of Helicobacter pylori Binds Multiple Attractant and Antagonistic Ligands via Distinct Sites” (mBio, 2021)
Where a name gives a salt, the structure may show the parent alone.

Tests used:
TlpALBD = test: Small-molecule ligand binding array; set-up: species or system Helicobacter pylori SS1; details: ligand binding array screen; n = 3; note: key: + for positive binding; +/− for intermediate binding; − for no binding
Protocol: Small-molecule arrays were prepared and performed as previously described ([57]). Briefly, 1 μg of purified TlpALBD in phosphate-buffered saline (PBS) (pH 7.2) was incubated with a molar concentration ratio (4:2:1) of anti-His antibody (Cell Signaling), followed by incubation with a secondary antibody (Thermo Scientific) for signal amplification. The protein-antibody mix was added to an Arrayit Superepoxy III glass substrate array blocked with PBS (pH 7.2) with 1% bovine serum albumin. […] Unbound protein was washed away with PBS with 0.05% Tween. […] Three biological replicates were performed, with a total of 12 data points for each glycan tested. Binding was classified as positive for a ligand if the relative fluorescence unit value was >1-fold above the mean background (defined as the average background of negative-control spots plus 3 standard deviations [SD]) and was statistically significant (P < 0.005 by Student’s t test). Small-molecule array slide preparation and analysis were done according to MIRAGE guidelines ([58]) (outlined in Table S5).
Classification Guidelines
1. Sample: Glycan Binding Sample
Origin: Helico bact er pyl ori SS1; produce d as a reco mbinant His -tagged protein in E.
The preparation of TlpA is exp lained in the Materials and Methods se ct ion: TlpA co nst ruct desi gn and protein purifica tion.
Sample Sample is a His Tagged protein co ntaining only the periplasm ic rece ptor domain, amino […]
Please see Materials and Methods: Li ga nd bi ndi ng arra y.
Proteins were co mplexe d with mouse anti-his antibody, with se co ndary and tertiary Alexa Fluor555 antibodies (rabbit anti-mouse , goat anti-rabbit) at a molar ratio of 4:2:1.
The protein/antibody co mplex was incu bated on ice for 10 mins prior to placi ng on the Assa y array. Arrays were performed with 1 µg of co mplexe d protein incu bated on the array for protoco l 20 min. Arrays were then wash ed 3 times in Array PBS (PBS + 2 mM MgCl2 + 2 mM CaCl2) then dried by ce ntrifugation for 3 min at 300 x g. Sca nning was performed usi ng an Innopsys InnoSca n 1100AL and analyze d usi ng Mapix (Innopsy s). Yes/ no binding was determined by si x posi tive replica te sp ots in three replica te exp eriments. […]
2.2 Small molecule Library […]
descr iption for Compounds printed in the amino aci d/small molecu le array for this st udy are list ed in […]
5.2 Small molecule array with “Map”
The array co nsi sts of triplica te su b-arrays of amino aci ds and sm all moleucl es (24 rows x 10 co lumns) with 400μm sp ot sp aci ng (ce ntre to ce ntre) with a minimum sp ot si ze of 100μm . Each sa mple is printed si x times, with each of the 3 su b-arrays incl uding at least Array layo ut si x negative co ntrol sa mples (print so lution only) and a posi tive co ntrol sa mples […]
Posi tive co ntrols provi de proof of su cce ssf ul immobiliza tion of the amine reagents and provi des for orientation for analysi s.
Sample Arrays are quality co ntrolled by a range of measu res. 1. Each printed array is post print identifica tion sca nned to co nfirm deposi tion of the sa mples on the array su rface prior to neutraliza tion and quality of the remaining sl ide su rface . 2. Post neutralize d sl ides are sca nned again to monitor co ntrol for remaining autofluoresce nce .
1. 6. Detector and Data Processing
Sca nning reso lution: […]
Sca n powers: Low lase r power. […]
analysi s Innopsys MAPIX.

TlpALBD point mutants = test: SPR binding affinity of TlpALBD point mutants relative to WT; set-up: species or system Helicobacter pylori SS1; details: vs WT
Text: The periplasmic portion of TlpA (TlpALBD), amino acids 28 to 299, from Helicobacter pylori SS1 was cloned into a pBH4 expression vector (pBH4_TlpALBD) to generate an N-terminal 6×His-tagged construct, with a tobacco etch virus (TEV) protease site, under the control of isopropyl-β-D-thiogalactopyranoside (IPTG) ([19]). […] TlpALBD and all point mutants were purified as described previously by Sweeney et al. ([19]).
Purified TlpALBD was immobilized on a CM5 series S sensor chip, and binding affinities were tested using a Biacore S200 instrument (GE Healthcare) as described previously ([39], [57], [59]). Briefly, proteins were captured using an amine-coupling kit (GE Healthcare), in which the carboxylmethyl dextran matrix of the sensor chip was activated by the injection of a mixture of 0.2 M 1-ethyl-3-[(3-dimethylamino)propyl]-carbodiimide (EDC) and 0.05 M N-hydroxysuccinimide (NHS), followed by the neutralization of the remaining unreacted NHS ester groups by the injection of 1 M ethanolamine-HCl (pH 8.0). Purified TlpALBD was diluted in 10 mM sodium acetate buffer (pH 4.5) at a concentration of 100 μg/ml for immobilization to the chip. A total of 8,400 response units (RU) of TlpALBD were captured on flow cell 2. […] The data sets were analyzed using Biacore S200 evaluation software 2.0.2; sensorgrams were double-reference subtracted.

H. pylori PMSS1 WT = test: Temporal chemotaxis assay (live-cell video microscopy, direction changes), WT; type: cell-based, Helicobacter pylori
Protocol: H. pylori chemotactic responses toward the seven putative TlpA-dependent ligands were examined by a live-cell video microscopy assay that measures the temporal chemotaxis response to test ligands. […] Acidic conditions are sensed by chemoreceptors other than TlpA ([24], [29], [31]) and potentially mask chemotactic responses to the ligands being tested.
Cultures of H. pylori PMSS1 WT and ΔtlpA strains were grown overnight, back-diluted, and then incubated until an OD600 of 0.12 to 0.15 was reached. Cultures were treated with water (Mock) or various concentrations of compounds, as indicated. […] The cells were immediately filmed, and direction changes were counted over a 3-s swimming period in at least 100 cells per treatment from 3 biological replicates. Data are normalized to the values for the untreated control for each strain, as described in Materials and Methods. Error bars represent the standard errors of the means. *, P < 0.05; **, P < 0.01; ***, P < 0.001 (comparisons to the untreated control per strain using two-way ANOVA with Dunnett’s multiple-comparison test).
Swimming behavior assays were done with H. pylori PMSS1 strains grown in BB10 as described above. Cultures grown overnight were diluted to an optical density at 600 nm (OD600) of 0.1 in fresh BB10 and then incubated with shaking as described above until an OD600 of 0.12 to 0.15 was reached. […] The number of direction changes in a bacterial swimming trajectory was enumerated over a 3-s interval to determine whether each putative ligand is sensed as an attractant or repellent or elicits no response ([20], [25][–][30]). […] Each control is sensed by chemoreceptors other than TlpA ([24], [25], [29], [31]). The pH of BB10 upon treatment was independently assessed using a Denver Instruments pH meter. […] Therefore, to be able to compare the results to those of previous experiments, we continued resuspending acidified ligands in pure water and then adjusting the pH of the resuspended ligand using NaOH. Cultures were filmed immediately after ligand addition at a ×400 magnification using a Hamamatsu C4742-95 digital camera with μManager software (version 1.4.22), mounted on a Nikon Eclipse E600 phase-contrast microscope. For the competition chemotaxis assay, cultures of H. pylori and ligands were prepared as described above. However, 1 min after the addition of a nonchemoactive ligand at a final concentration of 10 mM, a chemoactive ligand was added at a final concentration of 10 mM, and the cultures were then filmed as described above. Videos were relabeled to blind the observer to the strain identity. For each sample, >100 3-s-long bacterial tracks from three independent cultures were analyzed manually to identify stops followed by direction changes. Data for all biological replicates under each condition were combined, and the average number of direction changes in 3 s and the standard error of the mean were calculated. For each strain, data were normalized to the values for the untreated control under each experimental condition. Statistical analysis of the data for treated versus untreated samples was performed using two-way analysis of variance (ANOVA) and Dunnett’s multiple-comparison test.

H. pylori PMSS1 ΔtlpA = test: Temporal chemotaxis assay (direction changes), ΔtlpA mutant; type: cell-based, Helicobacter pylori; details: ligands 0.1-10 mM, controls 50 μM dipyridyl, 10 mM HCl
Protocol: Cultures of H. pylori PMSS1 WT and ΔtlpA strains were grown overnight, back-diluted, and then incubated until an OD600 of 0.12 to 0.15 was reached. Cultures were treated with water (Mock) or various concentrations of compounds, as indicated. For panels C and E, the pH of cysteine, thiamine, malic acid, and α-ketoglutarate stocks was adjusted using NaOH to match the pH of the water used for the untreated control. The cells were immediately filmed, and direction changes were counted over a 3-s swimming period in at least 100 cells per treatment from 3 biological replicates. Data are normalized to the values for the untreated control for each strain, as described in Materials and Methods. Error bars represent the standard errors of the means. *, P < 0.05; **, P < 0.01; ***, P < 0.001 (comparisons to the untreated control per strain using two-way ANOVA with Dunnett’s multiple-comparison test).
To determine if chemoattractant responses toward arginine, fumarate, and cysteine were TlpA dependent, the same tracking experiments were repeated with a mutant lacking tlpA (ΔtlpA).
Swimming behavior assays were done with H. pylori PMSS1 strains grown in BB10 as described above. Cultures grown overnight were diluted to an optical density at 600 nm (OD600) of 0.1 in fresh BB10 and then incubated with shaking as described above until an OD600 of 0.12 to 0.15 was reached. […] The number of direction changes in a bacterial swimming trajectory was enumerated over a 3-s interval to determine whether each putative ligand is sensed as an attractant or repellent or elicits no response ([20], [25][–][30]). […] Each control is sensed by chemoreceptors other than TlpA ([24], [25], [29], [31]). The pH of BB10 upon treatment was independently assessed using a Denver Instruments pH meter. Prior to realizing that chemotactic responses may be due to medium acidification, we resuspended all ligands in pure water. Therefore, to be able to compare the results to those of previous experiments, we continued resuspending acidified ligands in pure water and then adjusting the pH of the resuspended ligand using NaOH. Cultures were filmed immediately after ligand addition at a ×400 magnification using a Hamamatsu C4742-95 digital camera with μManager software (version 1.4.22), mounted on a Nikon Eclipse E600 phase-contrast microscope. For the competition chemotaxis assay, cultures of H. pylori and ligands were prepared as described above. However, 1 min after the addition of a nonchemoactive ligand at a final concentration of 10 mM, a chemoactive ligand was added at a final concentration of 10 mM, and the cultures were then filmed as described above. Videos were relabeled to blind the observer to the strain identity. For each sample, >100 3-s-long bacterial tracks from three independent cultures were analyzed manually to identify stops followed by direction changes. Data for all biological replicates under each condition were combined, and the average number of direction changes in 3 s and the standard error of the mean were calculated. For each strain, data were normalized to the values for the untreated control under each experimental condition. Statistical analysis of the data for treated versus untreated samples was performed using two-way analysis of variance (ANOVA) and Dunnett’s multiple-comparison test.

| SMILES | Array result (TlpALBD) | Change in binding affinity, any point mutant (TlpALBD point mutants) | Chemotactic response (direction changes vs mock) (H. pylori PMSS1 WT; WT, 0.1, 1, 10 mM tested, acidic ligand stocks pH neutralized with NaOH, 10 mM most significant) | Chemotactic response, ligand stock pH not adjusted (H. pylori PMSS1 WT; acidic in solution, unadjusted pH) | Chemotactic response of ΔtlpA mutant (H. pylori PMSS1 ΔtlpA) |
| --- | --- | --- | --- | --- | --- |
| O=C(O)CCC(=O)C(=O)O [α-Ketoglutarate, α-ketoglutaric acid] | + | no appreciable change | no significant direction changes | significant TlpA-independent chemorepellent responses |  |
| c1ccc(-c2ccccn2)nc1 [dipyridyl, 2,2′-dipyridyl, reference compound] |  |  |  |  | significant attractant |
| Cl [HCl, reference compound] |  |  |  |  | repellent responses |
